Measurements taken from PubChem BioAssay AID1963429 (Molecular Pharmacology Branch, DTP, NCI, 2024).

Tested on: 126254-015-R-J1-PDC complex spheroid growth, % test/control
Assay: Anticancer human tumor 126254-015-R-J1-PDC patient-derived soft tissue sarcoma cell line growth inhibition [Asc]
Details: for IC50: curve of first compound; for viability, T/C: stronger effect = lower value
In short: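 Complex solid-tumor spheroids incorporating human endothelial and mesenchymal stem cells received single agents or combinations over half-log dilution ranges anchored to clinical Cmax.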

[1] = second compound 0.03 µM, first compound 0.0316 µM
[2] = second compound 0.03 µM, first compound 0.1 µM
[3] = second compound 0.03 µM, first compound 0.316 µM
[4] = second compound 0.03 µM, first compound 1 µM
[5] = second compound 0.03 µM, first compound 3.16 µM
[6] = second compound 0.03 µM, first compound 10 µM
[7] = second compound 0.0949 µM, first compound 0.0316 µM
[8] = second compound 0.0949 µM, first compound 0.1 µM
[9] = second compound 0.0949 µM, first compound 0.316 µM
[10] = second compound 0.0949 µM, first compound 1 µM
[11] = second compound 0.0949 µM, first compound 3.16 µM
[12] = second compound 0.0949 µM, first compound 10 µM
[13] = second compound 0.3 µM, first compound 0.0316 µM
[14] = second compound 0.3 µM, first compound 0.1 µM
[15] = second compound 0.3 µM, first compound 0.316 µM
[16] = second compound 0.3 µM, first compound 1 µM
[17] = second compound 0.3 µM, first compound 3.16 µM
[18] = second compound 0.3 µM, first compound 10 µM
[19] = second compound 0.949 µM, first compound 0.0316 µM
[20] = second compound 0.949 µM, first compound 0.1 µM
[21] = second compound 0.949 µM, first compound 0.316 µM
[22] = second compound 0.949 µM, first compound 1 µM
[23] = second compound 0.949 µM, first compound 3.16 µM
[24] = second compound 0.949 µM, first compound 10 µM
[25] = second compound 3 µM, first compound 0.0316 µM
[26] = second compound 3 µM, first compound 0.1 µM
[27] = second compound 3 µM, first compound 0.316 µM
[28] = second compound 3 µM, first compound 1 µM
[29] = second compound 3 µM, first compound 3.16 µM
[30] = second compound 3 µM, first compound 10 µM
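Further: spheroids exposed to compound for seven days.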
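Wherever viability, T/C is given: 100% = DMSO vehicle control wells.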

Compound | IC50 (second compound 0.03 µM) | IC50 (second compound 0.0949 µM) | IC50 (second compound 0.3 µM) | IC50 (second compound 0.949 µM) | IC50 (second compound 3 µM) | viability, T/C [1] | viability, T/C [2] | viability, T/C [3] | viability, T/C [4] | viability, T/C [5] | viability, T/C [6] | viability, T/C [7] | viability, T/C [8] | viability, T/C [9] | viability, T/C [10] | viability, T/C [11] | viability, T/C [12] | viability, T/C [13] | viability, T/C [14] | viability, T/C [15] | also measured
C#Cc1c(F)ccc2cc(O)cc(-c3ncc4c(N5CC6CCC(C5)N6)nc(OCC56CCCN5CC(F)C6)nc4c3F)c12 (stereo not given) + CCN1C(C(=O)NC23CCC(C(=O)O)(CC2)CC3)C(c2cccc(Cl)c2F)C2(C(=O)Nc3cc(Cl)ccc32)C12CCCCC2 | > 10 µM | > 10 µM | > 10 µM | > 10 µM | > 10 µM | 96.1% | 102% | 100% | 96.2% | 95.5% | 79.4% | 101% | 95.3% | 96.2% | 84.8% | 87.3% | 69.9% | 99% | 104% | 97.7% | viability, T/C [16]: 101%; viability, T/C [17]: 99.2%; viability, T/C [18]: 88%; viability, T/C [19]: 92%; viability, T/C [20]: 103%; viability, T/C [21]: 94.9%; viability, T/C [22]: 88.7%; viability, T/C [23]: 97.3%; viability, T/C [24]: 93%; viability, T/C [25]: 103%; viability, T/C [26]: 94%; viability, T/C [27]: 86.1%; viability, T/C [28]: 98.6%; viability, T/C [29]: 86.2%; viability, T/C [30]: 78.5%
C=C(F)C(=O)N1CCN(c2nc(OCC3CCCN3C)nc3c2CCN(c2cccc4cccc(Cl)c24)C3)CC1CC#N (stereo not given) + CCN1C(C(=O)NC23CCC(C(=O)O)(CC2)CC3)C(c2cccc(Cl)c2F)C2(C(=O)Nc3cc(Cl)ccc32)C12CCCCC2 | 2.43 µM | 2.64 µM | 2.73 µM | 2.74 µM | 2.92 µM | 105% | 103% | 102% | 95.9% | 36.5% | 0.16% | 101% | 104% | 94.9% | 93.8% | 41.9% | 0.16% | 101% | 105% | 97.4% | viability, T/C [16]: 93.9%; viability, T/C [17]: 43.6%; viability, T/C [18]: 0.16%; viability, T/C [19]: 107%; viability, T/C [20]: 123%; viability, T/C [21]: 100%; viability, T/C [22]: 101%; viability, T/C [23]: 42.7%; viability, T/C [24]: 0.17%; viability, T/C [25]: 104%; viability, T/C [26]: 114%; viability, T/C [27]: 103%; viability, T/C [28]: 98.9%; viability, T/C [29]: 46.3%; viability, T/C [30]: 0.21%
C=CC(=O)N1CCN(c2nc(=O)n(-c3c(C)ccnc3C(C)C)c3nc(-c4c(O)cccc4F)c(F)cc23)C(C)C1 (stereo not given) + CCN1C(C(=O)NC23CCC(C(=O)O)(CC2)CC3)C(c2cccc(Cl)c2F)C2(C(=O)Nc3cc(Cl)ccc32)C12CCCCC2 | > 10 µM | > 10 µM | > 10 µM | > 10 µM | > 10 µM | 94.8% | 114% | 106% | 103% | 114% | 89% | 110% | 92.6% | 98.1% | 104% | 111% | 88.5% | 98.4% | 121% | 106% | viability, T/C [16]: 112%; viability, T/C [17]: 105%; viability, T/C [18]: 98.5%; viability, T/C [19]: 94.9%; viability, T/C [20]: 109%; viability, T/C [21]: 106%; viability, T/C [22]: 120%; viability, T/C [23]: 110%; viability, T/C [24]: 84.2%; viability, T/C [25]: 109%; viability, T/C [26]: 109%; viability, T/C [27]: 106%; viability, T/C [28]: 109%; viability, T/C [29]: 109%; viability, T/C [30]: 93.2%
